Drawing on patent US6878722B2, “Substituted cycloalkyl P1′ hepatitis C virus inhibitors” (Bristol-Myers Squibb Company, priority 2002, dated 2005), this text covers EC50 for 1 molecule.

The assay deals with HCV replicon in Huh7 cells. Description: HCV replicon cell-based assay (FRET). To be noted: Hepatitis C virus. The method in brief:
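Huh7 cells stably carrying a genotype 1b HCV replicon (IRES-neo-EMCV-IRES-NS3-NS5B) were treated with compound for 4 days at 37 °C in 0.5% DMSO final. Lysates containing 10 μM FRET peptide RET S1 were read kinetically at 340/490 nm to give NS3 protease activity, from which EC50 was derived.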
(In general: In antiviral work, replicon cells carry a viral genome segment that copies itself.)

Where two headings read alike, the source gives them in different places.

In general, EC50 refers to the concentration that produces a half-maximal response. Regarding `C=CC1C[C@]1(NC(=O)[C@@H]1C[C@@H](Oc2cc(-c3ccccc3)nc3cc(OC)ccc23)CN1C(=O)[C@@H](NC(=O)OC(C)(C)C)C(C)(C)C)C(=O)NS(=O)(=O)C1(C)CC1` (stereo in doubt) [Compound 1, (1-{4-(7-Methoxy-2-phenylquinolin-4-yloxy)-2-[1-(1-methylcyclopropanesulfonylaminocarbonyl)-2-vinylcyclopropylcarbamoyl]pyrrolidine-1-carbonyl}-2,2-dimethylpropyl)carbamic acid tert-butyl ester], the EC50 is 13.9 nM (Huh-7, 96 h, Huh7 cells, 4 days, read-out: EC50 value in the replicon assay) and below 50 nM (Huh-7, HCV replicon, read-out: EC50 range).
